Laboratory results from PubChem BioAssay AID330 (DTP/NCI, 2004).
Values joined by “and” are separate entries in the source; they are usually repeats but may differ in a detail not shown here. Equal entries are not always repeated. Toxic doses and inconclusive results are not listed. Rule for the calls: active = survival T/C of 150% or more; inactive = T/C below 125% in these data. Square brackets hold non-standard residues; d marks the D form. Peptide text beside a SMILES is read from it. ξ: configuration not given here. ξD = NC(CC(=O)O)C(=O)O

Tested on: P388 leukemia ip, CD2F1 mice, survival T/C
Assay: NCI In Vivo Anticancer Drug Screen. Data for tumor model P388 Leukemia (intraperitoneal) in CD2F1 (CDF1) mice
Conditions: endpoint: median survival time, higher = longer survival
Method in brief: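 Mice carrying the transplanted tumor received test compound or vehicle. Survival was recorded in each group, and the value is the treated-group measurement divided by that of the vehicle-treated control group.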

[1] = dose: 50.0 mg/kg/injection, schedule: Q01DX009 (ip), vehicle: saline with Tween-80
[2] = dose: 50.0 mg/kg/injection, schedule: Q04DX003 (ip), vehicle: saline with Tween-80
[3] = dose: 100.0 mg/kg/injection, schedule: Q01DX009 (ip), vehicle: saline with Tween-80
[4] = dose: 100.0 mg/kg/injection, schedule: Q04DX003 (ip), vehicle: saline with Tween-80
[5] = dose: 200.0 mg/kg/injection, schedule: Q01DX009 (ip), vehicle: saline with Tween-80
[6] = dose: 200.0 mg/kg/injection, schedule: Q04DX003 (ip), vehicle: saline with Tween-80
[7] = dose: 50.0 mg/kg/injection, schedule: Q01DX009 (ip), vehicle: saline
[8] = dose: 100.0 mg/kg/injection, schedule: Q01DX009 (ip), vehicle: saline
[9] = dose: 50.0 mg/kg/injection, schedule: Q01DX005 (ip), vehicle: Klucel (hydroxypropylcellulose) (HPC)
[10] = dose: 400.0 mg/kg/injection, schedule: Q01DX009 (ip), vehicle: saline with Tween-80
[11] = dose: 25.0 mg/kg/injection, schedule: Q01DX009 (ip), vehicle: saline with Tween-80
[12] = dose: 400.0 mg/kg/injection, schedule: Q04DX003 (ip), vehicle: saline with Tween-80
[13] = dose: 100.0 mg/kg/injection, schedule: Q01DX005 (ip), vehicle: Klucel (hydroxypropylcellulose) (HPC)
[14] = dose: 200.0 mg/kg/injection, schedule: Q01DX005 (ip), vehicle: Klucel (hydroxypropylcellulose) (HPC)
[15] = dose: 100.0 mg/kg/injection, schedule: Q01DX001 (ip), vehicle: saline with Tween-80
[16] = dose: 50.0 mg/kg/injection, schedule: Q01DX009 (ip), vehicle: Klucel (hydroxypropylcellulose) (HPC)
[17] = dose: 100.0 mg/kg/injection, schedule: Q01DX009 (ip), vehicle: Klucel (hydroxypropylcellulose) (HPC)
[18] = dose: 200.0 mg/kg/injection, schedule: Q01DX009 (ip), vehicle: Klucel (hydroxypropylcellulose) (HPC)

Measured: T/C

Cc1ccc(/C=N\N=C\c2ccc(C)cc2)cc1
inactive: [1] 100 % of control | [2] 91 % of control | [3] 90 % of control | [4] 87 % of control | [5] 90 % of control | [6] 91 % of control

N/C(Cc1noc2ccccc12)=N\O
inactive: [7] 109 % of control | [8] 107 % of control

CNCCC1CCCCC1
inactive: [9] 110 % of control

CCCCCCCCCCCCCCCCC1(O)OC(=O)C(C)=C1C (configuration not stated)
inactive: dose: 12.5 mg/kg/injection, schedule: Q04DX003 (ip), vehicle: saline with Tween-80 100 % of control | dose: 25.0 mg/kg/injection, schedule: Q04DX003 (ip), vehicle: saline with Tween-80 108 % of control | [2] 106 % of control

C=C(C)CC1(CCCCCCCCCC)C(=O)NC(=O)NC1=O
inactive: [2] 105 % of control | [4] 102 % of control | [6] 93 % of control

CCOC(=O)c1cc(N)c(C(=O)OCC)cc1N
inactive: [1] 97 % of control | [3] 86 % of control and 96 % of control | [5] 96 % of control and 97 % of control | [10] 92 % of control and 96 % of control

CCN(Cc1cc(Nc2ccnc3cc(Cl)ccc23)ccc1O)C(=O)N1CCN(C)CC1
inactive: dose: 100.0 mg/kg/injection, schedule: Q04DX002 (ip), vehicle: Klucel (hydroxypropylcellulose) (HPC) 100 % of control | dose: 200.0 mg/kg/injection, schedule: Q04DX002 (ip), vehicle: Klucel (hydroxypropylcellulose) (HPC) 96 % of control | dose: 400.0 mg/kg/injection, schedule: Q04DX002 (ip), vehicle: Klucel (hydroxypropylcellulose) (HPC) 96 % of control

COc1ccc(/C=C/c2ccc(S(=O)(=O)c3ccc(/C=C/c4ccc(OC)cc4)c(NC(C)=O)c3)cc2NC(C)=O)cc1
inactive: [11] 97 % of control | [1] 97 % of control | [3] 92 % of control

COC1/C=C/OC2(C)Oc3c(C)c(O)c4c(O)c(c(/C=N/N5C(C)CN(Cc6cccc(C#N)c6)CC5C)c(O)c4c3C2=O)NC(=O)/C(C)=C\C=C\C(C)C(O)C(C)C(O)C(C)C(OC(C)=O)C1C (configuration not stated)
inactive: dose: 12.5 mg/kg/injection, schedule: Q01DX009 (ip), vehicle: saline with Tween-80 110 % of control | [11] 109 % of control | [1] 109 % of control and 118 % of control

c1cc[n+](CCC[n+]2ccccc2)cc1
inactive: [7] 98 % of control | [8] 97 % of control | dose: 200.0 mg/kg/injection, schedule: Q01DX009 (ip), vehicle: saline 100 % of control

NC1=NN(O)C2=CC([N+](=O)[O-])C=CC2=N1 (configuration not stated)
inactive: [1] 101 % of control | [3] 110 % of control | [5] 97 % of control

CCCCOC(=O)C(C)OC(=O)Nc1cccc(Cl)c1 (configuration not stated)
inactive: [4] 90 % of control | [6] 90 % of control | [12] 100 % of control

COc1ccc(-c2cc(C(=O)O)c3cc4ccccc4cc3n2)cc1Br
inactive: [1] 94 % of control | [3] 93 % of control and 97 % of control | [5] 105 % of control and 87 % of control | [10] 121 % of control and 89 % of control | dose: 600.0 mg/kg/injection, schedule: Q01DX009 (ip), vehicle: saline with Tween-80 101 % of control

CCO/C=N/n1c(C(=O)NCCCOC)nc2ccccc2c1=O
inactive: [9] 107 % of control | [13] 94 % of control | [14] 100 % of control

CSc1nc(SC)c2cn(Cc3ccccc3)nc2n1
inactive: dose: 50.0 mg/kg/injection, schedule: Q01DX005 (ip), vehicle: saline with Tween-80 105 % of control | dose: 100.0 mg/kg/injection, schedule: Q01DX005 (ip), vehicle: saline with Tween-80 108 % of control | dose: 200.0 mg/kg/injection, schedule: Q01DX005 (ip), vehicle: saline with Tween-80 102 % of control

c1ccc2c(c1)NCCOCCNc1ccccc1OCCNCCO2
inactive: dose: 25.0 mg/kg/injection, schedule: Q01DX001 (ip), vehicle: saline with Tween-80 100 % of control | dose: 50.0 mg/kg/injection, schedule: Q01DX001 (ip), vehicle: saline with Tween-80 96 % of control | [15] 89 % of control and 92 % of control

CC1(C)NC(=S)N(O)C1(C)C
inactive: [7] 111 % of control | [8] 98 % of control

C=C(C)C1CCC2(C)C1CCC1(C)C2CCC2C3(C)C4OC(OC4=O)C(C)(C)C3CCC21C (configuration not stated)
inactive: dose: 25.0 mg/kg/injection, schedule: Q01DX005 (ip), vehicle: DMSO 98 % of control | dose: 50.0 mg/kg/injection, schedule: Q01DX005 (ip), vehicle: DMSO 100 % of control | dose: 100.0 mg/kg/injection, schedule: Q01DX005 (ip), vehicle: DMSO 100 % of control | dose: 200.0 mg/kg/injection, schedule: Q01DX005 (ip), vehicle: DMSO 113 % of control | dose: 400.0 mg/kg/injection, schedule: Q01DX005 (ip), vehicle: DMSO 108 % of control

FC(F)(F)C(OCC1CO1)(c1ccccc1)C(F)(F)F (configuration not stated)
inactive: [16] 89 % of control | [17] 97 % of control | [18] 97 % of control

NC(=O)CCC1CC(=O)c2ccccc2C1 (configuration not stated)
inactive: dose: 100.0 mg/kg/injection, schedule: Q01DX001 (ip), vehicle: Klucel (hydroxypropylcellulose) (HPC) 94 % of control | dose: 200.0 mg/kg/injection, schedule: Q01DX001 (ip), vehicle: Klucel (hydroxypropylcellulose) (HPC) 108 % of control | dose: 400.0 mg/kg/injection, schedule: Q01DX001 (ip), vehicle: Klucel (hydroxypropylcellulose) (HPC) 92 % of control

CCCCCC1OC1CC1OC1CCCCCCCC(=O)OC (configuration not stated)
inactive: [9] 96 % of control | [13] 96 % of control | [14] 104 % of control

C=CCN1C(=O)CSC1=S
inactive: [17] 100 % of control | [18] 108 % of control | dose: 400.0 mg/kg/injection, schedule: Q01DX009 (ip), vehicle: Klucel (hydroxypropylcellulose) (HPC) 110 % of control

CCN1Cc2c(/C=C/c3ccccc3)nc3ccc(OC)cc3c2N(c2cccc(Cl)c2)C1
inactive: dose: 25.0 mg/kg/injection, schedule: Q01DX009 (ip), vehicle: Klucel (hydroxypropylcellulose) (HPC) 103 % of control | [16] 94 % of control | [17] 102 % of control | [18] 98 % of control

CC(C)CCOCCOCCCN1C(=O)C2C3C=CC(C3)C2C1=O (configuration not stated)
inactive: [9] 99 % of control | [13] 100 % of control

NCC(=O)NC(CC(=O)O)C(=O)O (configuration not stated) (H-Gly-[ξD]-OH)
inactive: [4] 100 % of control | [6] 93 % of control | [12] 94 % of control

Cc1ccc(SSc2nnnn2C)cc1
inactive: [16] 100 % of control | [17] 88 % of control

O=C(N/N=C/c1cc(Br)cc(Br)c1[O-])c1ccccc1.O=C(N/N=C/c1cc(Br)cc(Br)c1[O-])c1ccccc1.[Ni+2]
inactive: [15] 90 % of control | dose: 200.0 mg/kg/injection, schedule: Q01DX001 (ip), vehicle: saline with Tween-80 90 % of control | dose: 400.0 mg/kg/injection, schedule: Q01DX001 (ip), vehicle: saline with Tween-80 94 % of control

O=C1C(C2=CCCCC2)CCCC1C1=CCCCC1 (configuration not stated)
inactive: [1] 89 % of control | [3] 91 % of control | [5] 104 % of control
